# Data from ChEMBL document CHEMBL4184315, “Discovery of Inhibitor of Wnt Production 2 (IWP-2) and Related Compounds As Selective ATP-Competitive Inhibitors of Casein Kinase 1 (CK1) δ/ε” (J Med Chem, 2018).
# Active and inactive are the calls of the source. The rule behind the calls is not given here.
# Experiments:
# [1] = molecular target: T1, Casein kinase I isoform delta (Homo sapiens, UniProt P48730); test: Inhibition of CK1delta isolated from human PANC1 cells at 5 uM using GST-tagged p53 (1 to 64 residues) as substrate after 30 mins in presence of [gamma-32P]-ATP by Cherenkov counting method
# [2] = molecular target: Casein kinase I isoform gamma-3 (Homo sapiens) (UniProt Q9Y6M4); test: Inhibition of human GST-tagged CK1gamma3 at 1 uM using alpha-casein as substrate after 30 mins in presence of [gamma-32P]-ATP by Cherenkov counting method
# [3] = molecular target: T2, Casein kinase I isoform delta (Rattus norvegicus, UniProt Q06486); test: Inhibition of full-length rat GST-tagged CK1delta using alpha-casein as substrate after 30 mins in presence of [gamma-32P]-ATP by Cherenkov counting method
# [4] = molecular target: T3, Casein kinase I isoform alpha (Bos taurus) (UniProt P67827); test: Inhibition of bovine GST-tagged CK1alpha at 1 uM using alpha-casein as substrate after 30 mins in presence of [gamma-32P]-ATP by Cherenkov counting method
# T3 sequence (whole entry): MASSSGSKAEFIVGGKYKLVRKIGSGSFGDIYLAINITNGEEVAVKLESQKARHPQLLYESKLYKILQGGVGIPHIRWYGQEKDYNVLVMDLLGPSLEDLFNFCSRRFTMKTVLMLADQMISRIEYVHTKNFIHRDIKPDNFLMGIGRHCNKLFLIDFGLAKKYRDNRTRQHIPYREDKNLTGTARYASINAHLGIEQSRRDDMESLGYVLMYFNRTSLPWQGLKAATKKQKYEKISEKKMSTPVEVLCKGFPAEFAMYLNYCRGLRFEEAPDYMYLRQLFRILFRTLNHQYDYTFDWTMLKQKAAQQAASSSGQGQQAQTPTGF
# [5] = molecular target: T4, Casein kinase I delta/epsilon (Homo sapiens) (UniProt P48730+P49674); test: Inhibition of CK1delta/epsilon in HEK293T cells assessed as suppression of Wnt/beta-catenin signaling up to 0.1 uM after 22 hrs in presence of Wnt3A-conditioned medium by Super-top flash reporter gene assay; type: cell-based
# [6] = molecular target: T4, Casein kinase I delta/epsilon (Homo sapiens); test: Inhibition of CK1delta/epsilon in HEK293T cells transfected with Wnt3A-expressing vector assessed as suppression of Wnt/beta-catenin signaling up to 0.1 uM after 22 hrs by Super-top flash reporter gene assay; type: cell-based
# [7] = Antiproliferative activity against human A818-6 cells after 48 hrs by MTT assay; type: functional, cell-based
# [8] = molecular target: Casein kinase I isoform delta (Rattus norvegicus) (UniProt Q06486); test: Inhibition of rat recombinant CK1delta kinase domain at 10 uM using alpha-casein as substrate after 30 mins in presence of [gamma-32P]-ATP by Cherenkov counting method
# [9] = molecular target: T2, Casein kinase I isoform delta; test: Inhibition of rat recombinant CK1delta kinase domain using alpha-casein as substrate after 30 mins in presence of [gamma-32P]-ATP by Cherenkov counting method
# [10] = molecular target: Casein kinase I isoform gamma-3 (Homo sapiens) (UniProt Q9Y6M4); test: Inhibition of human GST-tagged CK1gamma3 at 10 uM using alpha-casein as substrate after 30 mins in presence of [gamma-32P]-ATP by Cherenkov counting method
# [11] = Selectivity ratio of IC50 for human CK1epsilon to IC50 for full-length rat GST-tagged CK1delta
# PANC-1 = test: Antiproliferative activity against human PANC1 cells after 48 hrs by MTT assay; type: functional, cell-based; conditions: PANC-1, 48 h
# [12] = molecular target: Casein kinase I isoform epsilon (Homo sapiens, UniProt P49674); test: Inhibition of human recombinant CK1epsilon using alpha-casein as substrate after 30 mins in presence of [gamma-32P]-ATP by Cherenkov counting method
# [13] = molecular target: Casein kinase I isoform delta (Rattus norvegicus) (UniProt Q06486); test: Ratio of IC50 for full-length rat GST-tagged CK1delta to IC50 for rat recombinant CK1delta kinase domain
# CAPAN-1 = test: Antiproliferative activity against human Capan1 cells after 48 hrs by MTT assay; type: functional, cell-based; conditions: CAPAN-1, 48 h
# [14] = molecular target: Casein kinase I isoform delta (Rattus norvegicus, UniProt Q06486, M82F); test: Inhibition of rat GST-tagged CK1delta M82F mutant at 10 uM using alpha-casein as substrate after 30 mins in presence of [gamma-32P]-ATP by Cherenkov counting method
# [15] = molecular target: Casein kinase I isoform delta (Rattus norvegicus) (UniProt Q06486); test: Inhibition of full-length rat GST-tagged CK1delta at 10 uM using alpha-casein as substrate after 30 mins in presence of [gamma-32P]-ATP by Cherenkov counting method
# HT-29 = test: Antiproliferative activity against human HT-29 cells after 48 hrs by MTT assay; type: functional, cell-based; conditions: HT-29, 48 h
# HEK293 = test: Antiproliferative activity against human HEK293 cells after 48 hrs by MTT assay; type: functional, cell-based; conditions: HEK293, 48 h
# [16] = Selectivity ratio of IC50 for human CK1epsilon to IC50 for rat recombinant CK1delta kinase domain
# SW-620 = test: Antiproliferative activity against human SW620 cells after 48 hrs by MTT assay; type: functional, cell-based; conditions: SW-620, 48 h
# [17] = molecular target: T3, Casein kinase I isoform alpha (Bos taurus); test: Inhibition of bovine GST-tagged CK1alpha at 10 uM using alpha-casein as substrate after 30 mins in presence of [gamma-32P]-ATP by Cherenkov counting method
# [18] = Antiproliferative activity against human Panc89 cells after 48 hrs by MTT assay; type: functional, cell-based
# MIA PaCa-2 = test: Antiproliferative activity against human MIAPaCa2 cells after 48 hrs by MTT assay; type: functional, cell-based; conditions: MIA PaCa-2, 48 h
# [19] = molecular target: Casein kinase I isoform delta (Rattus norvegicus) (UniProt Q06486); test: Inhibition of rat recombinant CK1delta kinase domain assessed as residual activity at 10 uM using alpha-casein as substrate after 30 mins in presence of [gamma-32P]-ATP by Cherenkov counting method
# [20] = molecular target: Casein kinase I isoform delta (Rattus norvegicus) (UniProt Q06486); test: Inhibition of full-length rat GST-tagged CK1delta assessed as residual activity at 10 uM using alpha-casein as substrate after 30 mins in presence of [gamma-32P]-ATP by Cherenkov counting method
# [21] = molecular target: T1, Casein kinase I isoform delta; conditions: 125 uM
# Rattus norvegicus = organism: Rattus norvegicus; test: Selectivity ratio of IC50 for full-length rat GST-tagged CK1delta to IC50 for rat GST-tagged CK1delta M82F mutant
# [22] = molecular target: Casein kinase I isoform delta (Rattus norvegicus) (UniProt Q06486); test: Competitive inhibition of full-length rat GST-tagged CK1delta at IC50 using alpha-casein as substrate after 30 mins in presence of 10 to 500 uM ATP and [gamma-32P]-ATP by Cherenkov counting method
# [23] = molecular target: T5, Protein-serine O-palmitoleoyltransferase porcupine (Homo sapiens) (UniProt Q9H237); test: Inhibition of porcupine in HEK293T cells transfected with Wnt3A-expressing vector assessed as suppression of Wnt/beta-catenin signaling at 5 uM after 22 hrs by Super-top flash reporter gene assay relative to control; type: cell-based
# T5 sequence (whole entry): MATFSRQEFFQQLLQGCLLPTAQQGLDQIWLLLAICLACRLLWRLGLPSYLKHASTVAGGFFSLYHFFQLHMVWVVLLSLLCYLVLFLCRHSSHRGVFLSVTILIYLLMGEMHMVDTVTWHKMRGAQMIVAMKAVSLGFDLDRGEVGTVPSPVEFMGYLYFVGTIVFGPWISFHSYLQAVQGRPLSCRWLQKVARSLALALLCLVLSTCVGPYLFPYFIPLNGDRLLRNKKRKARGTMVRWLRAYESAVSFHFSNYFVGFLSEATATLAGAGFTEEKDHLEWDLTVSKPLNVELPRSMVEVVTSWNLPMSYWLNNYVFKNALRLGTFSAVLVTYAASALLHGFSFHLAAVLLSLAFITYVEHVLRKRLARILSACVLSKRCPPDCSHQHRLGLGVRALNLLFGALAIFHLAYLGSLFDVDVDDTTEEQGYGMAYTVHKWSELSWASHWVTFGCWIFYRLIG
# Homo sapiens = organism: Homo sapiens; test: Inhibition of Wnt/beta-catenin signaling in HEK293T cells after 22 hrs in presence of Wnt3A-conditioned medium by Super-top flash reporter gene assay; type: cell-based
# [24] = molecular target: T6, Protein-serine O-palmitoleoyltransferase porcupine (Homo sapiens, UniProt Q9H237); test: Inhibition of porcupine in HEK293T cells transfected with Wnt3A-expressing vector assessed as suppression of Wnt/beta-catenin signaling after 22 hrs by Super-top flash reporter gene assay; type: cell-based
# T6 sequence (Q9H237 whole entry): T5 sequence (whole entry)
# HEK-293T [25] = test: Upregulation of renilla luciferase expression in HEK293T cells transfected with Wnt3A-expressing vector up to 5 uM after 22 hrs by luminescence assay relative to control; type: cell-based; conditions: human
# HEK-293T [26] = test: Upregulation of renilla luciferase expression in HEK293T cells up to 5 uM after 22 hrs in presence of Wnt3A-conditioned medium by luminescence assay relative to control; type: cell-based; conditions: human
# Casein kinase I isoform delta (Rattus norvegicus, UniProt Q06486, M82F), sequence (Q06486 whole entry M82F, canonical isoform): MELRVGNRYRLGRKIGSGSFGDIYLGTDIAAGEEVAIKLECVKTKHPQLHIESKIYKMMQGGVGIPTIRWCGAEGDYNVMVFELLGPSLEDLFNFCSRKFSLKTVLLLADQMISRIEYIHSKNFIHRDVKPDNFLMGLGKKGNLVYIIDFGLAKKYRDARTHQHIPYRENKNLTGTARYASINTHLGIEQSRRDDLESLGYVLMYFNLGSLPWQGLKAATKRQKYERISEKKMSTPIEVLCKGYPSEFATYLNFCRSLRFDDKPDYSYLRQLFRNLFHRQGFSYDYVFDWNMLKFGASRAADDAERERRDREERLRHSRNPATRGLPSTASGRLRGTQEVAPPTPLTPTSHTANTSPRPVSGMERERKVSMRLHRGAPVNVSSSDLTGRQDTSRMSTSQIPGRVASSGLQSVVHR
# Casein kinase I isoform gamma-3 (Homo sapiens), sequence (Q9Y6M4 whole entry, looked up, canonical isoform): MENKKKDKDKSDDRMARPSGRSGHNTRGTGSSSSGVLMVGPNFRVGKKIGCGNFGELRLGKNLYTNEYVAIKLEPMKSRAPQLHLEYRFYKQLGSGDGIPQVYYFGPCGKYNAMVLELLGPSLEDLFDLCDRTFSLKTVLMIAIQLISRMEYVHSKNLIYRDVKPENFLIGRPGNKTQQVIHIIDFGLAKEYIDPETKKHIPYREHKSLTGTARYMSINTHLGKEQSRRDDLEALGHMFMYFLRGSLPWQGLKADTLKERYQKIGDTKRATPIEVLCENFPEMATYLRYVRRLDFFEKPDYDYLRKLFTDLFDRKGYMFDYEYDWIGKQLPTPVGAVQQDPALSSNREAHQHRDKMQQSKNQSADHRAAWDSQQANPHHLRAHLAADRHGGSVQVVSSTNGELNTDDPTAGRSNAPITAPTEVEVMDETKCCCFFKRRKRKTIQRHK
# Casein kinase I isoform epsilon, sequence (P49674 whole entry, the tested form may be a part, canonical isoform): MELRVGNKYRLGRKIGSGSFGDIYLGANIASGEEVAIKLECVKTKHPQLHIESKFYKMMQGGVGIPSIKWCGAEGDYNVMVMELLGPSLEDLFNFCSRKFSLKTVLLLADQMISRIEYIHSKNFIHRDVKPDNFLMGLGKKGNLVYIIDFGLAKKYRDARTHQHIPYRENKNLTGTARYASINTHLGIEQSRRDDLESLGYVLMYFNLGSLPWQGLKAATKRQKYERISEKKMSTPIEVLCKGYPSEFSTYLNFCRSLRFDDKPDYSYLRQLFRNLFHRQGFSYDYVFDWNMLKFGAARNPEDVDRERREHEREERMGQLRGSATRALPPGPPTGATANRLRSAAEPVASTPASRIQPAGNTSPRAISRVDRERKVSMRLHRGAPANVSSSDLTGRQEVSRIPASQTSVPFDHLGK
# Casein kinase I isoform delta (Rattus norvegicus), sequence (Q06486 whole entry, looked up, the tested form may be a part, canonical isoform): as the sequence (Q06486 whole entry M82F, canonical isoform) above, with F82M counted along it
# T2 sequence (Q06486 whole entry, canonical isoform): as the sequence (Q06486 whole entry M82F, canonical isoform) above, with F82M counted along it
# T4 sequence (P48730 whole entry, looked up): as the sequence (Q06486 whole entry M82F, canonical isoform) above, with F82M, V381I counted along it
# T4 sequence (P49674 whole entry, looked up): as the sequence (P49674 whole entry, the tested form may be a part, canonical isoform) above
# T1 sequence (P48730 whole entry, looked up, the tested form may be a part, canonical isoform): as the sequence (Q06486 whole entry M82F, canonical isoform) above, with F82M, V381I counted along it
compound,measurement,setting,value
COc1cc(OC)c(/C=C2/C(=O)Nc3ccccc32)c(OC)c1,inhibition,[1],40%
O=C(CSc1nc2c(c(=O)n1Cc1ccc(C(F)(F)F)cc1)SCC2)Nc1nc2ccc(C(F)(F)F)cc2s1,inhibition,[2],Active
same,IC50,[3],330 nM
same,inhibition,[4],Active
Fc1cccc(-n2cnc3c(NCc4nc5c(F)c(F)ccc5[nH]4)nc(N4CCOCC4)nc32)c1,inhibition,[5],Dose-dependent effect
same,inhibition,[6],Dose-dependent effect
Cc1ccc2nc(NC(=O)CSc3nc4c(c(=O)n3-c3ccc(F)cc3)SCC4)sc2c1,IC50,[3],1890 nM
same,EC50,[7],> 10 µM
same,inhibition,[8],Active
same,IC50,[9],550 nM
same,inhibition,[10],Active
same,Ratio IC50,[11],4 to 7
same,EC50,PANC-1,4.87 µM
same,IC50,[12],> 10 µM
same,Ratio IC50,[13],4
same,EC50,CAPAN-1,> 10 µM
same,IC50,[14],150 nM
same,inhibition,[15],Active
same,EC50,HT-29,> 10 µM
same,EC50,HEK293,3.5 µM
same,Ratio IC50,[16],< 17
same,EC50,SW-620,8.62 µM
same,inhibition,[17],inactive
same,EC50,[18],5.07 µM
same,EC50,MIA PaCa-2,5.34 µM
O=C(CSc1nc2c(c(=O)n1Cc1ccccc1)SCC2)Nc1nc2ccc(C(F)(F)F)cc2s1,inhibition,[2],Active
same,IC50,[3],1060 nM
same,IC50,[9],520 nM
same,IC50,[12],1.41 µM
same,IC50,[14],270 nM
same,inhibition,[4],Active
COc1ccccc1-n1c(SCC(=O)Nc2nc3ccc(C)cc3s2)nc2c(c1=O)SCC2,IC50,[3],1060 nM
same,EC50,[7],0.93 µM
same,IC50,[9],1020 nM
same,Activity,[19],22%
same,Ratio IC50,[11],4 to 7
same,EC50,PANC-1,0.23 µM
same,IC50,[12],7.07 µM
same,EC50,CAPAN-1,0.23 µM
same,IC50,[14],140 nM
same,EC50,HT-29,0.34 µM
same,EC50,HEK293,0.28 µM
same,Ratio IC50,[16],< 17
same,Activity,[20],25%
same,EC50,SW-620,0.23 µM
same,EC50,[18],0.58 µM
same,EC50,MIA PaCa-2,0.23 µM
Nc1nccc(-c2c(-c3ccc(F)cc3)ncn2C2CCCCC2)n1,inhibition,[21],40%
Cc1ccc2nc(NC(=O)CSc3nc4c(c(=O)n3Cc3ccccc3)SCC4)sc2c1,IC50,[3],1660 nM
same,EC50,[7],> 10 µM
same,inhibition,[8],Active
same,IC50,[9],420 nM
same,Ratio IC50,Rattus norvegicus,28
same,inhibition,[10],Active
same,Ratio IC50,[11],4 to 7
same,EC50,PANC-1,> 10 µM
same,IC50,[12],7.34 µM
same,Ratio IC50,[13],4
same,EC50,CAPAN-1,> 10 µM
same,IC50,[14],60 nM
same,inhibition,[15],Active
same,EC50,HT-29,> 10 µM
same,EC50,HEK293,> 10 µM
same,Ratio IC50,[16],< 17
same,inhibition,[22],Active
same,EC50,SW-620,8.52 µM
same,inhibition,[17],inactive
same,EC50,[18],3.1 µM
same,EC50,MIA PaCa-2,5.65 µM
Cc1cc(-c2ccc(CC(=O)Nc3ccc(-c4cccnc4)cc3)cc2)ccn1,Imax,[23],1.1%
same,inhibition,Homo sapiens,inactive
same,IC50,[24],< 1 nM
same,fold change (FC),HEK-293T [25],<= 1.3
same,fold change (FC),HEK-293T [26],<= 1.5
O=C(CSc1nc2c(c(=O)n1Cc1ccc(OC(F)(F)F)cc1)SCC2)Nc1nc2ccc(C(F)(F)F)cc2s1,inhibition,[2],Active
same,IC50,[3],700 nM
same,inhibition,[4],Active
O=C(CSc1nc2c(c(=O)n1-c1ccccc1)SCC2)Nc1nc2ccc(C(F)(F)F)cc2s1,inhibition,[2],Active
same,IC50,[3],660 nM
same,IC50,[9],400 nM
same,IC50,[12],4.12 µM
same,IC50,[14],210 nM
same,inhibition,[4],Active
COc1cccc(Cn2c(SCC(=O)Nc3nc4ccc(C(F)(F)F)cc4s3)nc3c(c2=O)SCC3)c1OC,inhibition,[2],Active
same,IC50,[3],760 nM
same,IC50,[9],230 nM
same,IC50,[12],1.23 µM
same,IC50,[14],210 nM
same,inhibition,[4],Active
O=C(CSc1nc2c(c(=O)n1Cc1cccc(C(F)(F)F)c1)SCC2)Nc1nc2ccc(C(F)(F)F)cc2s1,inhibition,[2],Active
same,IC50,[3],1030 nM
same,inhibition,[4],Active
